Test results taken from patent US6541484B2 (dated 2003).
Where a name gives a salt, the structure may show the parent alone.

Row | SMILES | melting point
1 | CCn1ncnc1COc1nc2c(cnn2-c2ccccc2)c2ccccc12 | 147 to 148 °C
2 | CCn1ncnc1COc1nc2c(cnn2-c2ccccc2)cc1C(C)(C)C (as salt: hydrochloride) | 150 to 152 °C
3 | Cn1ncnc1COc1nc2c(cnn2-c2ccccc2)cc1C(C)(C)C | 143 to 145 °C

Results, then the compound that gave them:

Row | melting point | SMILES
4 | 164 to 166 °C | Cn1ncnc1COc1cc(N)c2cnn(-c3ccccc3)c2n1
5 | 149 to 151 °C | Cn1ncnc1COc1nc2c(cnn2-c2ccccc2)c2ccccc12
